Legend:
[1] = tested on: OVA-sensitized and challenged BALB/c mice; test: Inflammatory cells in BALF; format: in vivo, mouse
Description: (§1) Ten female BABL/c mice in each group were sensitized by an intraperitoneal (i.p.) injection of 20 μg of OVA emulsified in 2.25 mg aluminum hydroxide gel in a total volume of 100 μL on days 0 and 14. The mice were challenged via the airway by 1% OVA in saline for 30 min on Days 28, 29 and 30 by ultrasonic nebulization. Six weeks after the last of three primary OVA challenges, the mice were exposed to 1% OVA for 30 min by nebulization as a secondary challenge. AHR was assessed on Day 74 (48 h after 1% OVA provocation) in each group. […] For comparison, sham-treated mice were sensitized but challenged with saline instead of 1% OVA (non-challenged). The vehicle, a mixture of alcohol : DMSO : 30% HPβCD : saline (0.5 : 0.5 : 1 : 8 , v/v), or S-petasin was injected at a volume of 0.01 mL/g of body weight. AHR was measured in unrestrained animals by barometric plethysmography using a whole-body plethysmograph (WBP) and analyzed using software of Life Science Suite P3 Analysis Modules (Gould, LDS Test and Measurement LLC, Valley View, OH, USA). The mice were placed into the main chamber of the WBP, and the baseline enhanced pause (P enh) value was determined. Then the mice were nebulized first with phosphate-buffered saline (PBS), and subsequently with increasing doses (6.25–50 mg/mL) of MCh for 3 min for each nebulization, followed by readings of breathing parameters for 3 min after each nebulization with determination of P enh values. Twenty-four hours after the P enh determination, these mice were anesthetized with pentobarbital (50 mg/kg, i.p.), and lavaged via a tracheal tube with PBS (1 × 1.0 mL, 37°C). After lavage, blood was collected from the jugular vein and allowed to sit so that it would coagulate. The collected bronchoalveolar lavage fluid (BALF) and coagulated blood were, respectively, centrifuged at 630 g for 7 min and at 3700 g for 10 min at 4°C, respectively. After centrifugation, the supernatants of BALF and serum were stored at −20°C until the determinations of cytokines, including interleukin (IL)-2, IL-4, IL-5, tumor necrosis factor (TNF)-α and interferon (IFN)-γ by flow cytometric methods using mouse Th1/Th2 cytokine CBA kits, of total immunoglobulin E (IgE), and of total IgG2a using enzyme-linked immunosorbent assay (ELISA) kits (Pharmingen, San Diego, CA, USA) according to the respective recommendations of the manufacturer. OVA-specific IgE was measured as described previously with some modifications. Wells were coated with 100 μL of OVA (20 μg/mL) instead of the capture antibody. Levels are expressed in arbitrary units, where one arbitrary unit equals the optical density of the sample divided by the optical density of unchallenged mouse serum or BALF (standard). The pellet from BALF was re-suspended in ACK lysing buffer (1.658 g NH4Cl, 0.2 g KHCO3 and 1.44 mg EDTA in 200 mL of water) to lyse the residual erythrocytes in each sample. The number of inflammatory cells was counted using a hemocytometer (Hausser Scientific, Horsham, PA, USA). Cytospun slides were stained and differentiated in a blinded fashion by counting at least 100 cells under light microscopy.

PDE3 = test: Inhibition of PDE3 activity and Lineweaver-Burk analysis; format: biochemical, guinea pig
Description: Activities of PDE1–5, partially separated from guinea pig lungs and hearts according to the method described by Ko et al., were measured with a two-step procedure according to the method of Thompson and Appleman, using cAMP with [^3H]-cAMP or cGMP with [^3H]-cGMP as substrates. The enzyme pμreparation (25 μL) was incubated for 30 min at 37°C in a total assay volume of […] containing 50 mM Tris-HCl (pH 7.4), 3 mM MgCl2, 1 mM dithiothreitol, 0.05% BSA, 1 μM cAMP with 0.2 μCi [^3H]-cAMP as a substrate alone or in the presence of 0.1 units calmodulin with 10 μM CaCl2 or 5 μM cGMP, and 1 μM cGMP with 0.2 μCi [^3H]-cGMP as another substrate alone or in the presence of 0.1 units calmodulin with 10 μM CaCl2. […] The reagents and homogenate were mixed on ice, and the reaction was initiated by transferring the mixture to a water bath at 37°C. Following a 30-min incubation, the reaction was stopped by transferring the reaction vessel to a bath of boiling water for 3 min. After cooling on ice, 20 μL of a 1 mg/mL solution of C. atrox snake venom was added to the reaction mixture, and the mixture was incubated at 37°C for 10 min. Unreacted [^3H]-cAMP or [^3H]-cGMP was removed by the addition of 500 μL of a 1-in-1 Tris-HCl (40 mM) buffer suspension of Dowex resin (1 × 8-200) with incubation on ice for 30 min. Each tube was then centrifuged for 2 min at 3700 g, and 150 μL of the supernatant was removed for liquid scintillation counting. […] The total protein in each fraction used was assayed according to the method described by Bradford. The PDE activities are shown as nmol/mg/min in the Lineweaver-Burk analysis.

PDE5 = target: T1, PDE5 (Cavia porcellus, UniProt H0VD23); test: Inhibition of PDE5 activity (two-step radioenzymatic assay); format: biochemical, guinea pig; conditions: mean ± SEM (n); read-out: IC50 on PDE isozyme 5
T1 construct: partially separated from guinea pig lungs and hearts; from tissue; host or cells: guinea pig lungs and hearts
Description: Activities of PDE1–5, partially separated from guinea pig lungs and hearts according to the method described by Ko et al., were measured with a two-step procedure according to the method of Thompson and Appleman, using cAMP with [^3H]-cAMP or cGMP with [^3H]-cGMP as substrates. The enzyme pμreparation (25 μL) was incubated for 30 min at 37°C in a total assay volume of […] containing 50 mM Tris-HCl (pH 7.4), 3 mM MgCl2, 1 mM dithiothreitol, 0.05% BSA, 1 μM cAMP with 0.2 μCi [^3H]-cAMP as a substrate alone or in the presence of 0.1 units calmodulin with 10 μM CaCl2 or 5 μM cGMP, and 1 μM cGMP with 0.2 μCi [^3H]-cGMP as another substrate alone or in the presence of 0.1 units calmodulin with 10 μM CaCl2. […] The reagents and homogenate were mixed on ice, and the reaction was initiated by transferring the mixture to a water bath at 37°C. Following a 30-min incubation, the reaction was stopped by transferring the reaction vessel to a bath of boiling water for 3 min. After cooling on ice, 20 μL of a 1 mg/mL solution of C. atrox snake venom was added to the reaction mixture, and the mixture was incubated at 37°C for 10 min. Unreacted [^3H]-cAMP or [^3H]-cGMP was removed by the addition of 500 μL of a 1-in-1 Tris-HCl (40 mM) buffer suspension of Dowex resin (1 × 8-200) with incubation on ice for 30 min. […]

[2] = tested on: cAMP-phosphodiesterase (PDE); parameters: method as in PMID 11345692; conditions: cited from earlier work
guinea pig trachea = conditions: precontracted by histamine, carbachol (CCh), KCl or leukotriene (LT) D4; read-out: IC50 in relaxing guinea pig trachea; cited from earlier work
[3] = tested on: OVA-sensitized and challenged BALB/c mice; test: Cytokines in BALF (CBA flow cytometry); format: in vivo, mouse
Description: as §1

[4] = 30 μmol/kg s.c., exception at 10 μmol/kg

C=C(C)[C@@H]1C[C@@]2(C)C(=CC1=O)CC[C@@H](OC(=O)/C=C\SC)[C@@H]2C [S-Petasin]
Increase in lymphocytes in BALF [1, 4]: significantly suppressed
Increase in eosinophils in BALF ([1]; 10–30 μmol/kg s.c.): significantly suppressed
Increase in neutrophils in BALF ([1]; 10–30 μmol/kg s.c.): significantly suppressed
Increase in total inflammatory cells in BALF ([1]; 10–30 μmol/kg s.c.): significantly suppressed
Macrophages in BALF ([1]; 10–30 μmol/kg s.c.): not affected
Ki (PDE3; Lineweaver-Burk analysis, cAMP substrate, read-out: Ki on PDE isozyme 3): 25.3 ± 2 µM
Mode of inhibition of PDE3 activity (PDE3; Lineweaver-Burk analysis, S-petasin 3–30 μM, milrinone 0.3–3 μM): competitively inhibited
IC50 (PDE3; mean ± SEM (n), read-out: IC50 on PDE isozyme 3): 25.5 ± 1.5 µM
IC50 (PDE5): > 100 µM
Inhibition of cAMP-phosphodiesterase (PDE) activity [2]: inhibited
IC50 (guinea pig trachea): < 10 µM
Increase in IL-4 level in BALF [3, 4]: significantly suppressed
Increase in IFN-γ level in BALF ([3]; 10–30 μmol/kg s.c.): significantly suppressed
Increase in IL-2 level in BALF ([3]; 10–30 μmol/kg s.c.): significantly suppressed
Increase in IL-5 level in BALF ([3]; 10–30 μmol/kg s.c.): significantly suppressed
Increase in TNF-α level in BALF ([3]; 10–30 μmol/kg s.c.): significantly suppressed

— publication PMC3094704, “S-Petasin, the Main Sesquiterpene of Petasites formosanus, Inhibits Phosphodiesterase Activity and Suppresses Ovalbumin-Induced Airway Hyperresponsiveness” (Evidence-based Complementary and Alternative Medicine : eCAM, 2011)
